Article PMC4448982, “LP-925219 maximizes urinary glucose excretion in mice by inhibiting both renal SGLT1 and SGLT2” (Pharmacology Research & Perspectives, 2015)

What was measured:
[1] = target: T1, intestinal SGLT1 (Mus musculus, UniProt Q8C3K6); experiment: Glucose-containing meal challenge in C57 mice; assay type: in vivo
T1 construct: from tissue; host or cells: small intestine of living male C57BL/6-Tyrc-Brd mice
T1 sequence (Q8C3K6 1-665): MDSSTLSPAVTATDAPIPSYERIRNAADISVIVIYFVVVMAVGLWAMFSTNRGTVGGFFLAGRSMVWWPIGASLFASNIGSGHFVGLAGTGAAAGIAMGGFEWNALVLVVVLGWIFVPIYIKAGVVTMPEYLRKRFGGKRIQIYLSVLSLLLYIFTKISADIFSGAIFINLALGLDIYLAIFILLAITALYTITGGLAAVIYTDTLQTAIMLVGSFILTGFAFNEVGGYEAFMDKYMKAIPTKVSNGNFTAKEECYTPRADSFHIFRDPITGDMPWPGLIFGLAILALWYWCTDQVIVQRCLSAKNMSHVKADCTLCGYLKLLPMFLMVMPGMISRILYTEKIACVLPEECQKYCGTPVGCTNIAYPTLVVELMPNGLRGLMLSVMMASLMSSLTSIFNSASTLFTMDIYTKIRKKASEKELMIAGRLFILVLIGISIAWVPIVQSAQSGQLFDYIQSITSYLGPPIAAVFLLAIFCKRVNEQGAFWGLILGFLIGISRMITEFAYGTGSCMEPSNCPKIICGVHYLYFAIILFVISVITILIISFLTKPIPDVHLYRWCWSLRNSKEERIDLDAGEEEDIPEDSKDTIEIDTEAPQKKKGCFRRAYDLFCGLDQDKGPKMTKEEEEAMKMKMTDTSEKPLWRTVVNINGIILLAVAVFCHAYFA
Procedure: A meal consisting of low-fat diet (10% kcal as fat, D12450B; Research Diets, New Brunswick, NJ) supplemented with glucose was prepared by adding 50 g of low-fat diet powder and 9.4 g of glucose to water with a final volume of 94 mL. At 8:30 am, C57 mice in the fed state received either vehicle or 50 mg/kg LP-925219 by oral gavage; 30 min later, at Time = 0, each mouse received 25 mL/kg of the above meal (9.2 g/kg glucose, 2.5 g/kg protein, 0.6 g/kg fat) by oral gavage as described previously (Powell et al. [2013b]). Blood obtained from unanesthetized mice at 0, 10, and 30 min by tail nick, and at 60 min by retro-orbital bleed, was assayed for whole blood glucose using an Accu-Chek Aviva glucometer (Roche Diagnostics, Indianapolis, IN). The blood obtained at 60 min was also used to measure circulating levels of total GLP-1 (tGLP-1; Glucagon-Like Peptide-1 Total ELISA Kit, catalog #EZGLP1T-36K, EMD Millipore, Billerica, MA) as described previously (Powell et al. [2013b]). After their blood was drawn at 60 min, mice were anesthetized with isoflurane (TW Medical Veterinary Supply, Lago Vista, TX) and then euthanized by cervical dislocation. Cecal contents were then collected and analyzed for glucose and pH as described previously (Powell et al. [2013b]). Blood glucose time-course data were converted to area under the curve (AUC) values by trapezoidal summation using GraphPad Prism v4.03.
Mice received either vehicle or LP-925219 at a dose of 50 mg/kg (n = 5 for each group) by oral gavage; 30 min later the mice received, by oral gavage at Time 0, a glucose-containing meal challenge. (A) Blood glucose levels were measured at 0, 10, 30, and 60 min; for each mouse, blood glucose levels were used to calculate an AUC value for statistical analysis. At 60 min, blood was obtained for (B) tGLP-1 levels, and cecal contents were obtained and assayed for (C) cecal glucose and (D) cecal pH. LP-925219-treated value different from vehicle, *P < 0.05, **P < 0.01, ***P < 0.001. AUC, area under the curve.

[2] = target: T2, renal SGLT1 and SGLT2 (Mus musculus, UniProt Q8C3K6); experiment: Metabolic cage study, 24-h urinary glucose excretion; assay type: in vivo; conditions: SGLT2 KO mice
T2 construct: from tissue; host or cells: kidney of living WT, SGLT1 KO, SGLT2 KO and DKO mice (C57BL/6J-129 SvEv hybrid)
T2 sequence (Q8C3K6 1-665): T1 sequence (Q8C3K6 1-665)
Procedure: (§1) Mice were individually housed in Nalgene Metabolic Cages for Mice (product MTB-0311), and 24-h urine collections were made to determine 24-h UGE, as described previously (Powell et al. [2013a]). Some mice received a single dose of either LP-925219 or vehicle by oral gavage at 8 am immediately prior to initiating collection of 24-h urine samples; in addition, some mice received two doses of either vehicle or 60 mg/kg LP-925219 by oral gavage, with the first dose given at 8 am and the second dose given at 6 pm, nearly midway through the collection of the 24-h urine sample.
(§2) Figure 5 UGE values in mice treated with a single dose of LP-925219. After DKO, S2 KO, S1 KO, and WT littermate mice received, by a single oral gavage at 8 am, either vehicle (Veh) or LP-925219 at a dose of (A) 1 mg/kg; (B) 10 mg/kg; or (C) 60 mg/kg, the mice were placed in metabolic cages and their urine was collected over the next 24 h and analyzed for total glucose. N = 5–11 mice/group. UGE < DKO UGE: *P < 0.05, **P < 0.01, ***P < 0.001; LP-925219 UGE > Veh UGE for the same group, ^^^P < 0.001. UGE, urinary glucose excretion.
(§3) Figure 6 UGE values in mice treated with two doses of 60 mg/kg LP-925219. DKO, S2 KO, S1 KO, and WT littermate mice received, by oral gavage at 8 am and then again at 6 pm, either vehicle (Veh) or LP-925219 at a dose of 60 mg/kg. The mice were placed in metabolic cages after the first gavage and their urine was collected over the next 24 h and analyzed for total glucose. N = 6–11 mice/group. UGE < DKO UGE, ***P < 0.001; LP-925219 UGE > Veh UGE for the same group, ^^^P < 0.001. UGE, urinary glucose excretion.

[3] = tested on: renal SGLT1 and SGLT2; experiment: as above; assay type: in vivo, mouse
Procedure: as §1, §2, §3

[4] = 50 mg/kg oral gavage, 60 min after meal, vs vehicle

## COc1ccc(Cc2cc([C@@H]3O[C@H](SC)[C@@H](O)[C@H](O)[C@H]3O)ccc2Cl)cc1 [LP-925219]
[1]; 50 mg/kg oral gavage 30 min before meal, 0-60 min, vs vehicle, P < 0.05
  blood glucose AUC after meal challenge: significant decrease
[1]; [4]
  cecal glucose: more glucose
  cecal pH: lower pH
  circulating total GLP-1: increased levels
[1]; 50 mg/kg oral gavage, short-term study
  diarrhea: not observed
[2]; single oral dose 60 mg/kg, maximal = vehicle-treated DKO
  24-h UGE: 80 ± 18 % of maximal
[2]; single oral dose 1 or 10 mg/kg, vs vehicle
  24-h UGE: did not show a significant increase
[2]; two oral 60 mg/kg doses (8 am, 6 pm)
  24-h UGE: 89 ± 16 % of maximal
[3]; DKO mice, single oral dose 1, 10 or 60 mg/kg, vs vehicle
  24-h UGE: not significantly increased
[3]; DKO mice, two oral 60 mg/kg doses (8 am, 6 pm), vs vehicle
  24-h UGE: not significantly increased
[3]; SGLT1 KO mice, single oral dose 1 mg/kg
  24-h UGE: almost maximal
[3]; SGLT1 KO mice, single oral dose, all higher doses (10, 60 mg/kg)
  24-h UGE: maximal
[3]; SGLT1 KO mice, two oral 60 mg/kg doses (8 am, 6 pm)
  24-h UGE: maximally increased
[3]; WT mice, single oral dose 1 mg/kg, vs vehicle
  24-h UGE: did not show a significant response
[3]; WT mice, single oral dose 60 mg/kg, maximal = vehicle-treated DKO
  24-h UGE: 68 ± 15 % of maximal
[3]; WT mice, two oral 60 mg/kg doses (8 am, 6 pm)
  24-h UGE: 90 ± 17 % of maximal
